# Source: patent publication US9303021B2, “Methods for treating cognitive disorders using 3-aryl-3-hydroxy-2-amino-propionic acid amides, 3-heteroaryl-3-hydroxy-2-amino-propionic acid amides and related compounds” (Allergan, Inc., priority 2007, dated 2016)
# How the values were obtained:
# C57B/6 male mice = test: Passive (inhibitory) avoidance task; format: in vivo; conditions: for Training latency Day 0 (latency to enter the dark/shock compartment): Day 0 is pre-treatment, N = 6/group; for Training latency Day 0 (latency to enter the dark/shock compartment) / Testing latency Day 1 (latency to enter the dark/shock compartment) / Testing latency Day 4 (latency to enter the dark/shock compartment) / Testing latency Day 7 (latency to enter the dark/shock compartment): in s; for Testing latency Day 1 (latency to enter the dark/shock compartment) / Testing latency Day 4 (latency to enter the dark/shock compartment) / Testing latency Day 7 (latency to enter the dark/shock compartment): max trial 180 sec; for memory for the shock-associated environment: IP post-training injections, young mice, versus vehicle
# From the text: (§1) The passive avoidance task exploits the tendency for rodents to avoid environments previously associated with an aversive stimulus (e.g. shock) and is therefore a reliable measure of emotional memory. The Morris water maze (MWM) task, a test of spatial learning and memory, requires that the animal learns the spatial locations of various extra-maze cues in order to accurately locate an escape platform that is hidden beneath the surface of the water in a water tank.
# Table 2, below, indicates the effects of compounds of the invention in a passive avoidance task (latency to enter the dark/shock compartment as dependent variable). Data were analyzed with One-Way ANOVAs followed by Bonferroni-corrected post-hoc measures (required P value dependent upon number of comparisons). The table below includes data from Vehicle-treated mice and mice treated with Compound A and Compound B.
# All treatments were administered IP immediately post-training.
# Passive Inhibitory Avoidance
# C57B/6 male mice (20-25 g; n=6-8/group) were used in this study.
# One Day 0, animals were individually placed in the bright side of a 2-chambered inhibitory avoidance box. Mice were given 35 seconds to acclimate after which a door between the two compartments was lifted and the animals were allowed to cross over into the dark compartment. Once they crossed over, the gate would close and the animal would receive a mild (0.15 mA, 2 sec) footshock. Memory retention for the shock-associated environment was evaluated 24 hours (Day 1), 4 (Day 4) and 7 (Day 7) days later. On each of the three memory retention tests (Days 1, 4, and 7), the mouse was given 15 seconds to acclimate before the gate was lifted. Latency to enter the dark (shock) compartment was measured and considered an index of passive fear avoidance. Maximum trial length=180 sec.
# aged rats = test: Morris water maze task; format: in vivo
# From the text: as §1
# Table 3, below, indicates the effects of Compound C in the Morris water maze task (mean escape latencies across testing days are shown).
# Data were analyzed with a Mann-Whitney U Test. Mean escape latency indicates the group mean over three sessions to escape onto the hidden platform. Data are shown for days 7-11 (the water maze training days); animals were dosed twice daily (PO) with 10 mg/kg Compound No. 1 or vehicle (as indicated) on Days 1-6 prior to water maze training.
# The Morris Maze consisted of a circular water tank (150 cm in diameter) filled with water and maintained at 27° C. with an escape platform (15 cm in diameter) 18 cm from the perimeter always in the same position 2 cm beneath the surface of the water. The water was made opaque by addition of a non-toxic coloring agent rendering the platform invisible. The testing was performed under light of moderate intensity.
# The animals were given 5 training sessions over 5 consecutive days. Each training session consisted of 3 consecutive trials in the Morris Maze separated by 120 seconds. For each trial the animal was placed in the maze at one of two starting points equidistant from the escape platform and allowed to find the escape platform. The animal was left on the escape platform for 60 seconds followed by a 60-second rest in an individual cage before starting a new trial. […] During the 3 trials the animals started the maze from the different starting points in a randomly determined order per animal.
# The trials were video-recorded and the behavior of the animals was analyzed using a video-tracking system (Panlab: Smart). The principal measure taken was the escape latency (time to find the hidden platform) at each trial. Additional measures (path length (distance traveled to find the hidden platform) and average speed) were also measured.
# Aged animals show amnesia in this task as indicated by a lower capacity to reduce their escape latencies from trial to trial.
# 15 aged rats were studied per group. The experiment also included a young control group. The test was performed blind.
# Compound C was evaluated at the dose of 10 mg/kg, administered p.o., and compared with a vehicle control group. The animals received the assigned treatment twice daily for 6 days prior to water-maze training. Twice daily administration continued during training, with one administration 60 minutes before each training session and the second administration between either 8.30-9.30 am or 4:30-5:30 pm, whichever was furthest from the training session for that particular animal.
# The experiment therefore included 3 groups.
# Data were analyzed by comparing treated groups with aged control using Mann Whitney U tests. In addition, the data were submitted to a two-factor analysis of variance (with age and session as factors, with repeated measures for session).
# [1] = 1 mg/kg IP given immediately post-training
# [2] = 1 mg/kg IP immediately post-training
# [3] = 10 mg/kg IP given immediately post-training
# [4] = 10 mg/kg IP immediately post-training
compound,measurement,setting,value
N[C@@H](C(=O)N1CCCC1)[C@@H](O)c1ccncc1 [Compound A],Training latency Day 0 (latency to enter the dark/shock compartment),C57B/6 male mice; [1],14.26
same,Testing latency Day 1 (latency to enter the dark/shock compartment),C57B/6 male mice; [2],64.34
same,Testing latency Day 4 (latency to enter the dark/shock compartment),C57B/6 male mice; [2],65.52
same,Testing latency Day 7 (latency to enter the dark/shock compartment),C57B/6 male mice; [2],54.32
same,Training latency Day 0 (latency to enter the dark/shock compartment),C57B/6 male mice; [3],9.88
same,Testing latency Day 1 (latency to enter the dark/shock compartment),C57B/6 male mice; [4],82.58
same,Testing latency Day 4 (latency to enter the dark/shock compartment),C57B/6 male mice; [4],58.33
same,Testing latency Day 7 (latency to enter the dark/shock compartment),C57B/6 male mice; [4],47.87
same,memory for the shock-associated environment,C57B/6 male mice,significantly improved memory
N[C@@H](C(=O)N1CCCCC1)[C@@H](O)c1ccsc1 [Compound B],Training latency Day 0 (latency to enter the dark/shock compartment),C57B/6 male mice; [1],6.58
same,Testing latency Day 1 (latency to enter the dark/shock compartment),C57B/6 male mice; [2],95.42
same,Testing latency Day 4 (latency to enter the dark/shock compartment),C57B/6 male mice; [2],81
same,Testing latency Day 7 (latency to enter the dark/shock compartment),C57B/6 male mice; [2],43.55
same,Training latency Day 0 (latency to enter the dark/shock compartment),C57B/6 male mice; [3],8.43
same,Testing latency Day 1 (latency to enter the dark/shock compartment),C57B/6 male mice; [4],126.27
same,Testing latency Day 4 (latency to enter the dark/shock compartment),C57B/6 male mice; [4],83.4
same,Testing latency Day 7 (latency to enter the dark/shock compartment),C57B/6 male mice; [4],56.22
same,memory for the shock-associated environment,C57B/6 male mice,significantly improved memory
N[C@@H](C(=O)N1CCCC1)[C@@H](O)c1ccncc1 [Compound C],escape latency of aged rats over the training period,"aged rats; 10 mg/kg twice daily for 6 days prior to and during the experiment, compared with aged controls",decreased the escape latency
same,"effect on escape latency, pooled data of the last 3 training sessions","aged rats; 10 mg/kg twice daily, aged rats versus aged controls",statistically significant
same,Mean Escape Latency Day 7,"aged rats; aged rats, 10 mg/kg p.o. twice daily, Day 7 (1st training day)",69.9 ± 4.0 s
same,Mean Escape Latency Day 8,"aged rats; aged rats, 10 mg/kg p.o. twice daily, Day 8",49.3 ± 5.4 s
same,Mean Escape Latency Day 9,"aged rats; aged rats, 10 mg/kg p.o. twice daily, Day 9",41.0 ± 1.8 ⋄ sec
same,Mean Escape Latency Day 10,"aged rats; aged rats, 10 mg/kg p.o. twice daily, Day 10",28.0 ± 2.2 s
same,Mean Escape Latency Day 11,"aged rats; aged rats, 10 mg/kg p.o. twice daily, Day 11",30.4 ± 3.4 s
